Data reported in ChEMBL document CHEMBL1201862, “PubChem BioAssay data set” (2004).
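Interpolation was linear, between the two tested concentrations surrounding the appropriate level; five concentrations were tested over 48 hours in 96-well plates. At the GI50, growth is halved.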 The source made the active and inactive calls. Rule as the data show it: active = GI50 up to about 1.1 µM and inactive = higher.

How the values were obtained:
Assay in all cases: inhibition of tumour cell growth, NCI panel, 48 h
MOLT-4 = system: MOLT-4
OVCAR-8 = system: OVCAR-8
M14 = system: M14
CCRF-CEM = system: CCRF-CEM
HL-60 = system: HL-60
HOP-62 = system: HOP-62
Malme-3M = system: Malme-3M
NCI-H23 = system: NCI-H23
UACC-62 = system: UACC-62
SNB-75 = system: SNB-75
COLO 205 = system: COLO 205
OVCAR-3 = system: OVCAR-3
K562 = system: K562
HCC 2998 = system: HCC 2998
NCI-H522 = system: NCI-H522
PC-3 = system: PC-3
SW-620 = system: SW-620
LOX IMVI = system: LOX IMVI
BT-549 = system: BT-549
786-0 = system: 786-0
UO-31 = system: UO-31
ACHN = system: ACHN
U-251 = system: U-251
MDA-MB-231 = system: MDA-MB-231
DMS-273 = system: DMS-273
MCF7 = system: MCF7
A549 = system: A549
OVCAR-4 = system: OVCAR-4
HOP-18 = system: HOP-18
A498 = system: A498
HCT-15 = system: HCT-15
RXF 393 = system: RXF 393
SK-OV-3 = system: SK-OV-3
SK-MEL-2 = system: SK-MEL-2
NCI-H460 = system: NCI-H460
UACC-257 = system: UACC-257
SF-539 = system: SF-539
HCT-116 = system: HCT-116
EKVX = system: EKVX
HT-29 = system: HT-29
HOP-92 = system: HOP-92
SNB-19 = system: SNB-19
DU-145 = system: DU-145
SR = system: SR
OVCAR-5 = system: OVCAR-5
SNB-78 = system: SNB-78
Hs-578T = system: Hs-578T
MDA-N = system: MDA-N
DMS-114 = system: DMS-114
NCI/ADR-RES = system: NCI/ADR-RES
SK-MEL-28 = system: SK-MEL-28
T47D = system: T47D
M19-MEL = system: M19-MEL
DLD-1 = system: DLD-1
CAKI-1 = system: CAKI-1
IGROV-1 = system: IGROV-1
LXFL 529 = system: LXFL 529
SF-268 = system: SF-268
SF-295 = system: SF-295
SK-MEL-5 = system: SK-MEL-5
SN12C = system: SN12C
TK-10 = system: TK-10
XF498 = system: XF498
RPMI-8226 = system: RPMI-8226
NCI-H226 = system: NCI-H226
KM12 = system: KM12
MDA-MB-435 = system: MDA-MB-435

For `O=C1CCC(c2ccccc2)=NN1c1nc2ccccc2s1`, the GI50 (MOLT-4) was 28 µM (inactive), the GI50 (OVCAR-8) was 34.8 µM (inactive) and the GI50 (M14) was 49.7 µM (inactive). The GI50 (CCRF-CEM) was 23.1 µM (inactive), the GI50 (HL-60) was 41.3 µM (inactive) and the GI50 (HOP-62) was 36.9 µM (inactive). The GI50 (Malme-3M) was 32.2 µM (inactive), the GI50 (NCI-H23) was 30.2 µM (inactive) and the GI50 (UACC-62) was 30.3 µM (inactive). The GI50 (SNB-75) was 22.3 µM (inactive), the GI50 (COLO 205) was 13.2 µM (inactive) and the GI50 (OVCAR-3) was 17.9 µM (inactive). For the same molecule, the GI50 (K562) was 29.8 µM (inactive), the GI50 (HCC 2998) was 26.9 µM (inactive) and the GI50 (NCI-H522) was 24.5 µM (inactive). The GI50 (PC-3) was 26.1 µM (inactive), the GI50 (SW-620) was 37.4 µM (inactive) and the GI50 (LOX IMVI) was 38.6 µM (inactive). The GI50 (BT-549) was 27.6 µM (inactive), the GI50 (786-0) was 38.3 µM (inactive) and the GI50 (UO-31) was 31.5 µM (inactive). The GI50 (ACHN) was 29.9 µM (inactive), the GI50 (U-251) was 29.4 µM (inactive) and the GI50 (MDA-MB-231) was 20.9 µM (inactive). For the same molecule, the GI50 (DMS-273) was 40.2 µM (inactive), the GI50 (MCF7) was 27 µM (inactive) and the GI50 (A549) was 35.9 µM (inactive). For the same molecule, the GI50 (OVCAR-4) was 36.7 µM (inactive), the GI50 (HOP-18) was 18.8 µM (inactive) and the GI50 (A498) was 30.1 µM (inactive). For the same molecule, the GI50 (HCT-15) was 29.6 µM, the GI50 (RXF 393) was 15.4 µM (inactive) and the GI50 (SK-OV-3) was 25.2 µM (inactive). For the same molecule, the GI50 (SK-MEL-2) was 20.1 µM (inactive), the GI50 (NCI-H460) was 27.7 µM (inactive) and the GI50 (UACC-257) was 27.2 µM (inactive). The GI50 (SF-539) was 24.5 µM (inactive), the GI50 (HCT-116) was 29.5 µM (inactive) and the GI50 (EKVX) was 30.8 µM (inactive). For the same molecule, the GI50 (HT-29) was 37.4 µM (inactive), the GI50 (HOP-92) was 26.7 µM (inactive) and the GI50 (SNB-19) was 35.6 µM (inactive). For the same molecule, the GI50 (DU-145) was 22.9 µM (inactive), the GI50 (SR) was 29.7 µM (inactive) and the GI50 (OVCAR-5) was > 63.5 µM (inactive). For the same molecule, the GI50 (SNB-78) was 41.2 µM (inactive), the GI50 (Hs-578T) was 36 µM (inactive) and the GI50 (MDA-N) was 27.9 µM (inactive). For the same molecule, the GI50 (DMS-114) was 31 µM (inactive), the GI50 (NCI/ADR-RES) was 28.7 µM (inactive) and the GI50 (SK-MEL-28) was 40.2 µM (inactive). The GI50 (T47D) was 11.9 µM (inactive), the GI50 (M19-MEL) was 28.3 µM (inactive) and the GI50 (DLD-1) was 34.1 µM (inactive). The GI50 (CAKI-1) was 32.4 µM (inactive), the GI50 (IGROV-1) was 34.9 µM (inactive) and the GI50 (LXFL 529) was 41.8 µM (inactive). The GI50 (SF-268) was 27.2 µM (inactive), the GI50 (SF-295) was 25.7 µM (inactive) and the GI50 (SK-MEL-5) was 20.4 µM (inactive). For the same molecule, the GI50 (SN12C) was 29.4 µM (inactive), the GI50 (TK-10) was 35.8 µM (inactive) and the GI50 (XF498) was 31.9 µM (inactive). For the same molecule, the GI50 (RPMI-8226) was 27 µM (inactive), the GI50 (NCI-H226) was 90.8 µM (inactive) and the GI50 (KM12) was 29.6 µM (inactive). The GI50 (MDA-MB-435) was 23.3 µM (inactive).
